Experimental data: a flash point compilation (Sun et al. 2020)
“And” between values parts separate entries of the source, which are not always exact repeats. Identical values can stand only once. Counter-ions that a name gives are not always drawn.

SMILES | flash point [°C]
CCCCCl [1-chlorobutane] | -7.00
CCCCCCCl [1-chlorohexane] | 35.00
CCCCCCC=O [heptanal] | 35.00
CCC(Cl)Cl [1,1-dichloropropane] | 21.00
CCCC(C)C [2-methylpentane] | -29.00
CCCCCC=O [hexanal] | 32.00
CCCOC=O [propyl formate] | -3.00
CCCCCCCCCl [1-chlorooctane] | 70.00
CC#N [acetonitrile] | 6.00
CCCCCCCC(=O)Cl [octanoyl chloride] | 81.00

Remark: another data set of the same source

SMILES | flash point
ClCCCCl [1,3-dichloropropane] | 32 °C
ClCCCCCCl [1,5-dichloropentane] | 26 °C
CCCCCl [1-chlorobutane] | -12 °C
CCCCCCCl [1-chlorohexane] | 26 °C
CCCCCCC=O [heptanal] | 41 °C
COCC(C)O (configuration not stated) [1-methoxy-2-propanol] | 38 °C
ClCCCCCl [1,4-dichlorobutane] | 40 °C
C=C1CCCCC1 [methylenecyclohexane] | -6 °C
C1=CCCC1 [cyclopentene] | -0 °C
CCC(Cl)Cl [1,1-dichloropropane] | 7 °C
CCCC(C)C [2-methylpentane] | -32 °C
CCCCCC=O [hexanal] | 25 °C
CCCOC=O [propyl formate] | -0 °C
COCCCN [3-methoxypropylamine] | 32 °C
CCCCCCCCCl [1-chlorooctane] | 63 °C
CN(C)C1CCCCC1 [N,N-dimethylcyclohexylamine] | 39 °C
C=CCCCCCCCCCCCC [1-tetradecene] | 110 °C
CC#N [acetonitrile] | 13 °C
CCNCC [diethylamine] | -26 °C and -23 °C
C=CCC#N [3-butenenitrile] | 21 °C
CC(C)(Cl)Cl [2,2-dichloropropane] | -5 °C
CC1CCCCC1O (configuration not stated) [2-methylcyclohexanol] | 58 °C
CCC(Cl)CCl (configuration not stated) [1,2-dichlorobutane] | 26 °C
CCCCCCCC(=O)Cl [octanoyl chloride] | 82 °C
CCCCN=C=O [butyl isocyanate] | 29 °C
C1CCC1 [cyclobutane] | -65 °C
CCCCCBr [1-bromopentane] | 31 °C

Remark: another data set of the same source

SMILES | flash point [°C]
COC [Methyl ether] | -41.00
CCCCCC [Hexane] | -22.00
CC(=O)CC(C)=O [2,4-Pentanedione] | 41.00
ClCC(Cl)CCl [1,2,3-Trichloropropane] | 82.00
CC(C)=O [Acetone] | -18.00
Oc1ccccc1-c1ccccc1 [o-Phenyl phenol] | 124.00
O=Cc1ccccc1O [Salicylaldehyde] | 78.00
CO [Methyl alcohol] | 12.00
Cc1ccc(C(C)C)cc1 [p-Cymene] | 47.00
CC(=O)C=C(C)C [Mesityl oxide] | 31.00
Oc1ccc(Cl)cc1 [p-Chlorophenol] | 121.00
FC(F)=C(F)Cl [Chlorotrifluoroethylene] | -27.00
Cc1ccc([N+](=O)[O-])cc1 [p-Nitrotoluene] | 106.00
CCCC(=O)OC(=O)CCC [n-Butyric anhydride] | 88.00
OCc1ccccc1 [Benzyl alcohol] | 101.00
O=C1OC(=O)c2ccccc21 [Phthalic anhydride] | 151.00
c1ccc(Oc2ccccc2)cc1 [Phenyl ether] | 96.00
C=COCCCC [Butyl vinyl ether] | -9.00
COc1ccccc1 [Anisole] | 52.00
CC(C)=CC(C)(C)C [2,4,4-Trimethyl-2-pentene] | 2.00
CN [Monomethylamine] | -10.00
O=CC=Cc1ccccc1 [Cinnamaldehyde] | 49.00
CCCCCCO [n-Hexanol] | 60.00
CC(=O)O [Acetic acid] | 43.00

SMILES | flash point [°C]
ClCc1ccccc1 [Benzyl chloride] | 67.00
CCC(C)OC(C)=O (configuration not stated) [sec-Butyl acetate] | 31.00
C=C(C)OC(C)=O [iso-Propenyl acetate] | 16.00
NCCCN [1,3-Propanediamine] | 24.00
O=[N+]([O-])c1cccc2ccccc12 [alpha-Nitronaphthalene] | 164.00
CC(O)C#N (configuration not stated) [Lactonitrile] | 77.00
COC(=O)c1ccccc1O [Methyl salicylate] | 101.00
O=C(O)CCCCC(=O)O [Adipic acid] | 191.00
SCc1ccccc1 [Benzyl mercaptan] | 70.00
CC(O)C(C)O (configuration not stated) [2,3-Butylene glycol] | 85.00
O=[N+]([O-])c1ccccc1-c1ccccc1 [o-Nitrobiphenyl] | 143.00
OCCCCCO [1,5-Pentanediol] | 135.00
CC(C)[N+](=O)[O-] [2-Nitropropane] | 39.00
CCCC=C(C=O)CC [2-Ethyl-3-propyl acrolein] | 68.00
OCCOCCO [Diethylene glycol] | 124.00
CN(C)C=O [Dimethylformamide] | 58.00
CCCN(CCC)CCC [Tripropylamine] | 41.00
CC(=O)OC(C)=O [Acetic anhydride] | 54.00
CC(=O)OCc1ccccc1 [Benzyl acetate] | 102.00
CCC(C)C [iso-Pentane] | -51.00
CCCC(=O)OCC [Ethyl butyrate] | 26.00
Nc1ccc(N)cc1 [p-Phenylenediamine] | 156.00
CC(C)CCOC=O [iso-Amyl formate] | 26.00
CC(O)CCO (configuration not stated) [1,3-Butylene glycol] | 121.00

SMILES | flash point [°C]
C=COC [Methyl vinyl ether] | -51.00
O=Cc1ccccc1 [Benzaldehyde] | 64.00
C=CC(=O)OCC [Ethyl acrylate] | 16.00
Nc1cc(Cl)ccc1Cl [2,5-Dichloroaniline] | 166.00
CC=O [Acetaldehyde] | -38.00
OCc1ccco1 [Furfuryl alcohol] | 75.00
COc1ccc(O)cc1 [Hydroquinone monomethyl ether] | 131.00
O=CO [Formic acid] | 69.00
Oc1ccc2ccccc2c1 [2-Naphthol] | 153.00
COC(C)=O [Methyl acetate] | -9.00
C#CCO [Propargyl alcohol] | 36.00
Cc1cccc(O)c1 [m-Cresol] | 94.00
CC(=O)OC(C)C [iso-Propyl acetate] | 4.00
CC[N+](=O)[O-] [Nitroethane] | 38.00
C=C(Cl)Cl [Vinylidene chloride] | -15.00
CC(C)Cc1ccccc1 [iso-Butyl benzene] | 52.00
Clc1ccccc1Cl [o-Dichlorobenzene] | 66.00
Cc1ccccc1O [o-Cresol] | 81.00
C=Cc1ccccc1 [Styrene] | 31.00
CC(=O)OCCC(C)C [iso-Amyl acetate] | 23.00
CCCCc1ccccc1 [n-Butyl benzene] | 71.00
Clc1ccccc1 [Chlorobenzene] | 29.00
NCCNCCNCCN [Triethylene-tetramine] | 135.00
Cc1ccccc1C [o-Xylene] | 32.00

SMILES | flash point [°C]
O=C(O)c1ccccc1 [Benzoic acid] | 121.00
c1ccc(Cc2ccccc2)cc1 [Diphenylmethane] | 130.00
Clc1ccc(Cl)c(Cl)c1 [1,2,4-Trichlorobenzene] | 99.00
CCCO [n-Propyl alcohol] | 15.00
CCCC#N [n-Butyronitrile] | 26.00
CCN(CC)c1ccccc1 [N,N-Diethylaniline ] | 85.00
CCO [Ethanol] | 12.00
FC(F)(F)c1ccccc1 [Benzotrifluoride] | 12.00
CC12CCC(CC1=O)C2(C)C (configuration not stated) [Camphor] | 66.00
CC(C)c1ccccc1C(C)C [Diisopropyl benzene] | 76.00
CCCC(=O)O [n-Butyric acid] | 66.00
CC1COC(=O)O1 (configuration not stated) [Propylene carbonate] | 135.00
CC(C)OC(=O)c1ccccc1 [iso-Propyl benzoate] | 99.00
C1CCCC1 [Cyclopentane] | -7.00
CCOC(C)=O [Ethyl acetate] | -4.40
CCC(C=O)CC [2-Ethyl butyraldehyde] | 21.00
CCCCCl [n-Butyl chloride] | 7.00
N#CCCCCC#N [Adiponitrile] | 93.00
c1ccc(C2CCCCC2)cc1 [Cyclohexylbenzene] | 99.00
O=C1C=CC(=O)O1 [Maleic anhydride] | 102.00
C=CCBr [Allyl bromide] | -1.00
O=C1c2ccccc2C(=O)c2ccccc21 [Anthraquinone] | 185.00
O=C(OCc1ccccc1)c1ccccc1 [Benzyl benzoate] | 148.00
O=[N+]([O-])c1ccccc1 [Nitrobenzene] | 88.00

Remark: another data set of the same source

SMILES | flash point [°C]
ClCCCCl [1,3-dichloropropane] | 21
ClCCCCCCl [1,5-dichloropentane] | 63
COCC(C)O (configuration not stated) [1-methoxy-2-propanol] | 31
ClCCCCCl [1,4-dichlorobutane] | 43
C=C1CCCCC1 [methylenecyclohexane] | -2
C1=CCCC1 [cyclopentene] | -30
COCCCN [3-methoxypropylamine] | 23
CN(C)C1CCCCC1 [N,N-dimethylcyclohexylamine] | 41
C=CCCCCCCCCCCCC [1-tetradecene] | 97
